The test system of data set [1] is FAO rat hepatoma cells. The data set is described as follows: Cell based assays (IR phosphorylation assays). Conditions: prodrug vs parent carboxylic-phosphonic acid. An excerpt:
Antibodies and Chemicals. The antibody against phosphorylated insulin receptor (pIR) and the ELISA kit for detection of pIR were from Biosource (Camarillo, Calif.). Rabbit anti-IR/IGF-1R [pYpY1162/1163] phosphospecific antibody recognizes both the insulin receptor (IR) and the insulin-like growth factor-1 receptor (IGF-1R) phosphorylated at the active site tyrosine residues, 1162 and 1163 (1135 and 1136 for IGF-1R) (pIR/pIGF-1R). The Insulin Receptor [pYpY1162/1163] […] HRP-conjugated secondary antibodies were from Cell Signaling Technology (Beverly, Mass.). The ECL detection system was from Amersham (Buckinghamshire, UK), and human insulin was from Invitrogen (Carlsbad, Calif.).
Tissue Culture. FAO rat hepatoma cells were obtained from ECACC (#89042701) and maintained at 37° C. in a 5% CO2 environment in Dulbecco's modified Eagle's medium with high glucose (DMEM-high glucose) (4500 mg/liter) supplemented with 10% FBS and 50 units/ml penicillin, 100 µg/ml streptomycin and 0.292 mg/ml L-glutamine. For assays, cells were seeded in 24-well plates at a density of 2×10^5 cells/well and maintained until they reached confluency (about 3 days).
IR phosphorylation assays. Cells in 24-well plates were serum starved overnight in DMEM-low glucose (1000 mg/liter) without serum. […] The pIR/pIGF-1R signals were scanned (HP scanjet 3570c) and quantified (Scion Image). […]

What is called melting point is the temperature of the solid-liquid transition.

Turning to `CC(C)(C)C(=O)OCOC(=O)c1ccc(-c2csc(NCc3ccc(C(F)(F)P(=O)(O)OCOC(=O)C(C)(C)C)c(Br)c3)n2)cc1` [4-[2-(3-Bromo-4-{[(2,2-dimethyl-propionyloxymethoxy)-hydroxy-phosphoryl]-difluoro-methyl}-benzylamino)-thiazol-4-yl]-benzoic acid 2,2-dimethyl-propionyloxymethyl ester], the “increase in activity in a cell-based assay as compared to the parent carboxylic-phosphonic acid” value in data set [1] was roughly 10 fold.
As for `O=C(O)c1cccc(Oc2cccc(-c3nn(Cc4ccc(C(F)(F)P(=O)(O)O)c(Cl)c4)c(=Nc4ccc(Cl)c(Cl)c4)s3)c2)c1` [Example 8, 3-{3-[4-[3-Chloro-4-(difluoro-phosphono-methyl)-benzyl]-5-(3,4-dichloro-phenylimino)-4,5-dihydro-[1,3,4]thiadiazol-2-yl]-phenoxy}-benzoic acid], the melting point fell in the range of 212 to 215 °C.
Still for that read-out and setting: with `COC(=O)c1cccc(Oc2cccc(-c3nn(Cc4ccc(C(F)(F)P(=O)(O)O)c(Cl)c4)c(=Nc4ccc(Cl)c(Cl)c4)s3)c2)c1` [Example 9, 3-{3-[4-[3-Chloro-4-(difluoro-phosphono-methyl)-benzyl]-5-(3,4-dichloro-phenylimino)-4,5-dihydro-[1,3,4]thiadiazol-2-yl]-phenoxy}-benzoic acid methyl ester] the figure was 137 to 139 °C; with `O=C(O)c1cccc(Oc2cccc(-c3nn(Cc4ccc(C(F)(F)P(=O)(O)O)c(F)c4)c(=Nc4ccc(Cl)c(Cl)c4)s3)c2)c1` [Example 10, 3-(3-{5-(3,4-Dichloro-phenylimino)-4-[4-(difluoro-phosphono-methyl)-3-fluoro-benzyl]-4,5-dihydro-[1,3,4]thiadiazol-2-yl}-phenoxy)-benzoic acid], 153 to 156 °C.
`COC(=O)c1cccc(Oc2cccc(-c3nn(Cc4ccc(C(F)(F)P(=O)(O)O)c(F)c4)c(=Nc4ccc(Cl)c(Cl)c4)s3)c2)c1` [Example 11, 3-(3-{5-(3,4-Dichloro-phenylimino)-4-[4-(difluoro-phosphono-methyl)-3-fluoro-benzyl]-4,5-dihydro-[1,3,4]thiadiazol-2-yl}-phenoxy)-benzoic acid methyl ester] displayed a melting point of 137 to 139 °C.
On the same count and under the same terms, with `O=C(O)c1cccc(Oc2cccc(-c3nnc(N(Cc4ccc(C(F)(F)P(=O)(O)O)c(Cl)c4)c4ccc(Cl)c(Cl)c4)s3)c2)c1` [Example 46, 3-(3-{5-[[3-Chloro-4-(difluoro-phosphono-methyl)-benzyl]-(3,4-dichloro-phenyl)-amino]-[1,3,4]thiadiazol-2-yl}-phenoxy)-benzoic acid] the figure was 178 to 180 °C; with `COC(=O)c1cccc(Oc2cccc(-c3nnc(N(Cc4ccc(C(F)(F)P(=O)(O)O)c(Cl)c4)c4ccc(Cl)c(Cl)c4)s3)c2)c1` [Example 48, 3-(3-{5-[[3-Chloro-4-(difluoro-phosphono-methyl)-benzyl]-(3,4-dichloro-phenyl)-amino]-[1,3,4]thiadiazol-2-yl}-phenoxy)-benzoic acid methyl ester], 73 to 76 °C.
